In patent US20100137346A1, “DESFE[…] ACTINIDE DEC[…]” (priority 2006, published 2010):
Where two headings read alike, the source gives them in different places.

Key:
[1] = Chelator accumulation in lung tissue; assay type: in vivo, rodents; conditions: SC 300 μmol/kg, 0.5 h post drug
Description: Chelator Access to Lung Tissue. As inhalation is one of the principal routes of potential actinide contamination, in a preliminary study aimed at this proposal, the accumulation of two different DFT analogues in lung tissue, (S)-4′-(HO)-DADMDFT (9, FIG. 1) and (S)-3′,4′-(CH3O)-DADMDFT, 19, Table 2)] was investigated. Rodents were given the drugs SC at a dose of 300 μmol/kg. The latter chelator is far more lipophilic than the former. The more lipophilic chelator (19) achieved a concentration of 290±66 nmol/g wet weight 0.5 h post drug. The level of the less lipophilic ligand (9) was much lower, 80±9 nmol/g wet weight 0.5 h post drug. This is consistent with the idea that organ targeting can be achieved,[Bergeron, et al., Impact of the Lipophilicity of Desferrithiocin Analogues on Iron Clearance, Medicinal Inorganic Chemistry 2005; 366-383] corroborating previous studies and further contributing to the index of success of the invention.

[2] = cited from earlier work
[3] = rats, same dose; cited from earlier work
[4] = Iron-clearing efficiency (ICE) in iron-overloaded Cebus apella primate; assay type: in vivo; conditions: orally to C. apella primates, 150 μmol/kg
Description: In the text below, “iron-clearing efficiency” (ICE) [Bergeron, et al., Effects of C-4 Stereochemistry and C-4′ Hydroxylation on the Iron Clearing Efficiency and Toxicity of Desferrithiocin Analogues, J Med Chem 1999; 42:2432-2440] is used as a measure of the amount of iron excretion induced by a chelator. The ICE, expressed as a percent, is calculated as (ligand-induced iron excretion/theoretical iron excretion)×100. To illustrate, the theoretical iron excretion after administration of one millimole of desferrioxamine (DFO, 14, Table 1), a hexadentate chelator which forms a 1:1 complex with Fe(III), is one milli-g-atom of iron. Two millimoles of desferrithiocin (DFT, 1, FIG. 1), a tridentate chelator which forms a 2:1 complex with Fe(III), are required for the theoretical excretion of one milli-g-atom of iron. In clinical practice, the actual ICE of DFO (14), used to treat people with iron overload, is only 5 to 7% [Pippard, et al., Iron Chelation Using Subcutaneous Infusions of Diethylene Triamine Penta-acetic Acid (DTPA), Scand J Haematol 1986; 36:466-472; Pippard, Desferrioxamine-Induced Iron Excretion in Humans, Bailliere's Clin Haematol 1989; 2:323-343]. […]

[5] = bile duct-cannulated rodent model; cited from earlier work
[6] = in vivo; cited from earlier work
[7] = Chelator-induced uranium excretion (urine + bile, 24 h) in bile duct-cannulated rat model; assay type: in vivo; conditions: 300 μmol/kg IP Immediate
Description: Desferrithiocin Analogue Induced Excretion of Uranium. In order to compare results with previous chelator-induced iron excretion data, the uranium clearance studies were carried out in a bile duct-cannulated rat model. The animals were given uranyl acetate dihydrate SC at a dose of 5 mg/kg (the actual dose of uranium is 2.8 mg/kg). Bile and urine samples were collected for 24 hours after dosing. Kidneys were removed from selected animals and tissue uranium concentration measured. At least three animals were utilized in each experimental group. Data from two separate control studies (uranyl acetate/ no chelator) have now been combined for a total of 14 control animals. All uranium concentrations were measured using ICPMS. The data are reported as the total quantity of uranium excreted [urine +bile]; the mode of excretion [urine/bile] is also given. In addition the percentage of the administered dose of uranium cleared and chelator-induced uranium excretion vs the controls is also given. Four positive controls were evaluated: DTPA (13, Table 1) given as its trisodium calcium salt, DFO (14), N,N′-bis(2hydroxybenzyl)ethylenediamine-N,N′-diacetic acid, monosodium salt (NaHBED, 15) and the hydroxypyridone CP94 (16) shown to bind uranium [Pashalidis, et al., Effective complex formation in the interaction of 1,2-dimethyl-3-hydroxypyrid-4-one (Deferiprone or L1) with uranium(VI), Journal of Radioanalytical and Nuclear Chemistry 1999; 242:181-184.] The total metal cleared after 24 h in control rats was 10% of the administered dose. When DTPA, 13, was given IP or PO at 300 μmol/kg immediately after uranium, the excretion was 17% and 8% of the administered dose respectively (p>0.05). However, when the drug was given IP at a dose of 600 μmol/kg immediately post-metal, the uranium excretion was significant, 20% (p<0.005). This is consistent with previously published data using a similar animal model.[Domingo, et al., Comparative effects of the chelators sodium 4,5-dihydroxybenzene-1,3-disulfonate (Tiron) and diethylenetriaminepentaacetic acid (DTPA) on acute uranium nephrotoxicity in rats, Toxicology 1997; 118:49-59] DFO (14) and CP94 (16) given IP immediately post uranyl acetate were ineffective.
Desferrithiocin Analogue-Induced Excretion of Uranium. In order to compare results with previous chelator-induced iron excretion data, the uranium clearance studies were carried out in a bile duct-cannulated rat model. The animals were given uranyl acetate dihydrate SC at a dose of 5 mg/kg (the actual dose of uranium is 2.8 mg/kg). Bile and urine samples were collected for 24 hours after dosing. Kidneys were removed from selected animals and tissue uranium concentration measured. At least three animals were utilized in each experimental group. Data from two separate control studies (uranyl acetate/ no chelator) are combined for a total of 14 control animals. All uranium concentrations were measured using ICPMS. The data are reported as the total quantity of uranium excreted [urine +bile]; the mode of excretion [urine/bile] is also given. In addition the percentage of the administered dose of uranium cleared and chelator-induced uranium excretion vs the controls is also given. Four positive controls were evaluated: DTPA (1, Table 1) given as its trisodium calcium salt, DFO (2), N,N -bis(2-hydroxybenzyl)ethylenediamine-N,N-diacetic acid, monosodium salt (NaHBED, 3) and the hydroxypyridone CP94 (4) shown to bind uranium. The total metal cleared after 24 h in control rats was 10% of the administered dose. When DTPA, 1, was given IP or PO at 300 μmol/kg immediately after uranium, the excretion was 17% and 8% of the administered dose respectively (p>0.05). However, when the drug was given IP at a dose of 600 μmol/kg immediately post metal, the uranium excretion was significant, 20% (p<0.005). This is consistent with previously published data using a similar animal model.^2 DFO (2) and CP94 (4) given IP immediately post uranyl acetate were ineffective.

[8] = rodents; cited from earlier work
[9] = rodents; cited from earlier work; remark: listed apart in the source

Structure (SMILES): COc1ccc(C2=N[C@@H](C(=O)O)CS2)c(O)c1OC [Compound 19, (S)-4,5-dihydro-2(3,4-dimethoxy-2-hydroxyphenyl)-4-thiazolecarboxylic acid]
- concentration in lung tissue [1]: 290±66 nmol/g wet weight

Structure (SMILES): O=C(O)[C@H]1CSC(c2ccc(O)cc2O)=N1 [Compound 9, (S)-2(2,4-dihydroxyphenyl)-4,5-dihydro-4-thiazolecarboxylic acid]
- concentration in lung tissue [1]: 80±9 nmol/g wet weight
- iron-clearing activity, in words ([2]; C. apella model): compatible with iron clearance
- ICE ([2]; administered PO at a dose of 150 μmol/kg): 5.3%
- outcome of planned 10-day dosing regimen [3]: did not display any frank toxicity

Structure (SMILES): COc1ccc(C2=N[C@@H](C(=O)O)CS2)c(O)c1OC [drawing 26]
- Iron Clearing Efficiency (%) [4]: 12.4 ± 6.2%
- relative percentages of the iron excreted in the stool and urine ([4]; [stool/urine]): 94/6

Structure (SMILES): C[C@]1(C(=O)O)CSC(c2ncccc2O)=N1 [Compound 1, (S)-4,5-dihydro-2-(3-hydroxy-2-pyridinyl)-4methyl-4-thiazolecarboxylic acid, reference compound]
- ICE ([2]; iron-overloaded C. apella primate): 16%
- ICE [5]: 5.5%
- toxicity, in words [6]: severely nephrotoxic

Structure (SMILES): COCCOCCOCCOc1ccc(C2=N[C@@](C)(C(=O)O)CS2)c(O)c1 [Compound 18, (S)-4,5-dihydro-2-[2-hydroxy-4-(3,6,9-trioxadecyloxy)phenyl]-4methyl-4-thiazolecarboxylic acid]
- % of Administered Dose Cleared [7]: 22%
- iron-clearing efficiency, in words ([2]; in both rodents and primates): highly efficient iron chelator
- kidney concentration versus 10 [8]: significantly lower concentrations in the kidney
- liver concentration versus 10 [8]: higher concentrations in the liver
- tolerability versus 10 [9]: more tolerable
